{"source": "ChEMBL document CHEMBL1909046", "about": "“DrugMatrix in vitro pharmacology data”", "key": {"[1]": {"molecular_target": "T1, Amine oxidase [flavin-containing] A (Homo sapiens, UniProt P21397)", "T1 sequence (P21397 whole entry)": "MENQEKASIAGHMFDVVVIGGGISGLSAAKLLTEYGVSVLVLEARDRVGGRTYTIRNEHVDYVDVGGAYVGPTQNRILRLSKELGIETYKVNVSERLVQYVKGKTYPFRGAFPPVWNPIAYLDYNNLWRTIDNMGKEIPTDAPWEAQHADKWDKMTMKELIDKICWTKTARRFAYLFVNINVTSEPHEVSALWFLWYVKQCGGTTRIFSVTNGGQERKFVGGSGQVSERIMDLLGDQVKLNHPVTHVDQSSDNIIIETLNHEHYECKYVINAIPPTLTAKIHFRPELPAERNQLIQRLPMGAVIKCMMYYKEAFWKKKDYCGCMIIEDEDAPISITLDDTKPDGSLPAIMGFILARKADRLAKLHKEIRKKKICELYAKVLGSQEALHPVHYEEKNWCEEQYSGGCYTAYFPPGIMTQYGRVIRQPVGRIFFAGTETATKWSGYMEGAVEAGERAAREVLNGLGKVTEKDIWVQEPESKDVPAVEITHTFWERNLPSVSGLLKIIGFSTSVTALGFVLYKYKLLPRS", "assay": "DRUGMATRIX: Monoamine Oxidase MAO-A enzyme inhibition (substrate: Kynuramine)", "parameters": "species or system BTI-TN-5B1-4", "conditions": "bti-tn-5b1-4; Not Active = under 50% inhibition at 10 µM"}, "[2]": {"assay": "DRUGMATRIX: Phorbol Ester radioligand binding (ligand: [3H] PDBu)", "assay_type": "cell membranes, Mus musculus, ICR, Brain, Membrane", "conditions": "Not Active = under 50% inhibition at 10 µM"}, "B2 bradykinin receptor": {"molecular_target": "T2, B2 bradykinin receptor (Homo sapiens, UniProt P30411)", "T2 sequence (P30411 whole entry)": "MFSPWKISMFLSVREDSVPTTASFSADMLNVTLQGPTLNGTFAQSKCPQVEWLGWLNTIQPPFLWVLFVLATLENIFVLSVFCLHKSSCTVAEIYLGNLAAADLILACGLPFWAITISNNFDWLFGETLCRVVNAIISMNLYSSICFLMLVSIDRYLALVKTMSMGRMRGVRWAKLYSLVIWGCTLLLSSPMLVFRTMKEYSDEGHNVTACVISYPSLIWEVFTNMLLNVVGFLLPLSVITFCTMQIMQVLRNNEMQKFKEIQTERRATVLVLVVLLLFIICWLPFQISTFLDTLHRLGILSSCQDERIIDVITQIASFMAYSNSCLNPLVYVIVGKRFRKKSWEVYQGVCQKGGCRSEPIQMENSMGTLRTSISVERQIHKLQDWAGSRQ", "assay_type": "cell membranes, Membrane", "conditions": "chem-1"}, "[3]": {"molecular_target": "T3, Neuropeptide Y receptor type 1 (Homo sapiens, UniProt P25929)", "T3 sequence (P25929 whole entry)": "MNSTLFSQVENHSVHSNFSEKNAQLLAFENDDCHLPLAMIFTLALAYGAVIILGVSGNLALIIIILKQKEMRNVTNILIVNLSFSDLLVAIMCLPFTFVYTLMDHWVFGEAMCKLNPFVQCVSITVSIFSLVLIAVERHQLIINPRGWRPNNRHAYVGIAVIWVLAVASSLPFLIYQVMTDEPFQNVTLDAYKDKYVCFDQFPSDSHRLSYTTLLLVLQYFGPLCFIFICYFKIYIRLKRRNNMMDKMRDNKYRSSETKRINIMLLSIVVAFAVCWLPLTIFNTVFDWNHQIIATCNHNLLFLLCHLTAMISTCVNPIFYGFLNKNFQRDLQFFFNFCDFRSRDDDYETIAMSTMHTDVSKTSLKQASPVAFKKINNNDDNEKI", "assay_type": "cell membranes, Membrane", "conditions": "sk-n-mc"}, "[4]": {"molecular_target": "Sodium-dependent dopamine transporter (Homo sapiens, UniProt Q01959)", "sequence (Q01959 whole entry)": "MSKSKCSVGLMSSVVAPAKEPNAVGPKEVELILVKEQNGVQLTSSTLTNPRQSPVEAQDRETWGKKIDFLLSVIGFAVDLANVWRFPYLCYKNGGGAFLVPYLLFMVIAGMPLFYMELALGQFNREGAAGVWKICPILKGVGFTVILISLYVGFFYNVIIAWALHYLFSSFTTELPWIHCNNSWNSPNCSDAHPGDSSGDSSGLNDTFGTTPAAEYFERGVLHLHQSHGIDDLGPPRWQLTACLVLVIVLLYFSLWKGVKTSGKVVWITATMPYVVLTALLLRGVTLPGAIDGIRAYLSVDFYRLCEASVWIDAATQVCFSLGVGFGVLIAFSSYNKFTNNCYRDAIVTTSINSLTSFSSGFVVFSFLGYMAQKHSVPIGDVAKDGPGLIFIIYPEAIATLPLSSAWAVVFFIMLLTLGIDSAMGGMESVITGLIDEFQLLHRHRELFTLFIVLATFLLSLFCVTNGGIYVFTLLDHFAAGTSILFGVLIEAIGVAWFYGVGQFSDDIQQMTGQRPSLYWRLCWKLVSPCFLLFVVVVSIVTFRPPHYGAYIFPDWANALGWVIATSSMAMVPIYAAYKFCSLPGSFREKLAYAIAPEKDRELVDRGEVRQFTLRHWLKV", "assay": "DRUGMATRIX: Dopamine Transporter radioligand binding (ligand: [125I] RTI-55)", "assay_type": "cell membranes, CHO-K1, Membrane", "conditions": "cho-k1; Not Active = under 50% inhibition at 10 µM"}, "[5]": {"molecular_target": "T4, Alpha-1D adrenergic receptor (Homo sapiens, UniProt P25100)", "T4 sequence (P25100 whole entry)": "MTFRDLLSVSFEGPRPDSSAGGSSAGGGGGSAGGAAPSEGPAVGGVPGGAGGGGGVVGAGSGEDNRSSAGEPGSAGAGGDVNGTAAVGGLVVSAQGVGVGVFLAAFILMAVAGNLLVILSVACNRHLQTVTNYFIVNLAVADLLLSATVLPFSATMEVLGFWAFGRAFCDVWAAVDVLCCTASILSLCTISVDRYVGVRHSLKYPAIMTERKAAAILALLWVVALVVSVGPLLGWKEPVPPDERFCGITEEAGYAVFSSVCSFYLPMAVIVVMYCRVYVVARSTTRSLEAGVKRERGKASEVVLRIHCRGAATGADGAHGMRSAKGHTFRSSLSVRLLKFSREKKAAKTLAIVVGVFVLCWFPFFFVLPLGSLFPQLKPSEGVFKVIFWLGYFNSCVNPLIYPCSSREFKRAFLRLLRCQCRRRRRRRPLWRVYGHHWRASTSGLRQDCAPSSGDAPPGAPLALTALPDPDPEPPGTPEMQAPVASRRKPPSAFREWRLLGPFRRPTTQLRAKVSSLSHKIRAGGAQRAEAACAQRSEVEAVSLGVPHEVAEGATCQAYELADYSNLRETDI", "assay_type": "cell membranes, HEK293, Membrane"}}}
{"compound": "CCN(CC)CCCC(C)Nc1c2ccc(Cl)cc2nc2ccc(OC)cc12", "note": "(stereo not drawn) [QUINACRINE]", "values": [{"measurement": "IC50", "setting": "[1]", "result": "Not Active"}, {"measurement": "IC50", "setting": "[2]", "result": "Not Active"}, {"measurement": "Ki", "setting": "[2]", "result": "Not Active"}, {"measurement": "IC50", "setting": "B2 bradykinin receptor", "result": "Not Active"}, {"measurement": "IC50", "setting": "[3]", "result": "Not Active"}, {"measurement": "IC50", "setting": "[4]", "result": "Not Active"}, {"measurement": "IC50", "setting": "[5]; read-out: IC50", "result": 2070, "unit": "nM"}, {"measurement": "Ki", "setting": "[5]; read-out: Ki", "result": 1020, "unit": "nM"}]}
{"compound": "C[C@]12C=CC(=O)C=C1CC[C@H]1[C@@H]3C[C@@H](O)[C@](O)(C(=O)CO)[C@@]3(C)C[C@H](O)[C@@]12F", "note": "[TRIAMCINOLONE]", "values": [{"measurement": "IC50", "setting": "[1]", "result": "Not Active"}, {"measurement": "IC50", "setting": "[2]", "result": "Not Active"}, {"measurement": "Ki", "setting": "[2]", "result": "Not Active"}, {"measurement": "IC50", "setting": "B2 bradykinin receptor", "result": "Not Active"}, {"measurement": "IC50", "setting": "[3]", "result": "Not Active"}, {"measurement": "IC50", "setting": "[4]", "result": "Not Active"}, {"measurement": "IC50", "setting": "[5]; hek293", "result": "Not Active"}]}
{"compound": "CC[C@]1(O)C[C@@H]2CN(CCc3c([nH]c4ccccc34)[C@@](C(=O)OC)(c3cc4c(cc3OC)N(C)[C@H]3[C@@](O)(C(N)=O)[C@H](O)[C@]5(CC)C=CCN6CC[C@]43[C@@H]65)C2)C1", "note": "[VINDESINE]", "values": [{"measurement": "IC50", "setting": "[1]", "result": "Not Active"}, {"measurement": "IC50", "setting": "[2]", "result": "Not Active"}, {"measurement": "Ki", "setting": "[2]", "result": "Not Active"}, {"measurement": "IC50", "setting": "B2 bradykinin receptor", "result": "Not Active"}, {"measurement": "IC50", "setting": "[3]", "result": "Not Active"}, {"measurement": "IC50", "setting": "[4]", "result": "Not Active"}, {"measurement": "IC50", "setting": "[5]; hek293", "result": "Not Active"}]}
{"compound": "CCN(C(C)=O)c1cccc(-c2ccnc3c(C#N)cnn23)c1", "note": "[ZALEPLON]", "values": [{"measurement": "IC50", "setting": "[1]", "result": "Not Active"}, {"measurement": "IC50", "setting": "[2]", "result": "Not Active"}, {"measurement": "Ki", "setting": "[2]", "result": "Not Active"}, {"measurement": "IC50", "setting": "B2 bradykinin receptor", "result": "Not Active"}, {"measurement": "IC50", "setting": "[3]", "result": "Not Active"}, {"measurement": "IC50", "setting": "[4]", "result": "Not Active"}, {"measurement": "IC50", "setting": "[5]; hek293", "result": "Not Active"}]}
{"compound": "COBALTOUS CHLORIDE", "values": [{"measurement": "IC50", "setting": "[1]", "result": "Not Active"}, {"measurement": "Ki", "setting": "[1]", "result": "Not Active"}, {"measurement": "IC50", "setting": "[2]", "result": "Not Active"}, {"measurement": "Ki", "setting": "[2]", "result": "Not Active"}, {"measurement": "IC50", "setting": "B2 bradykinin receptor", "result": "Not Active"}, {"measurement": "Ki", "setting": "B2 bradykinin receptor", "result": "Not Active"}, {"measurement": "IC50", "setting": "[3]", "result": "Not Active"}, {"measurement": "Ki", "setting": "[3]", "result": "Not Active"}, {"measurement": "IC50", "setting": "[4]", "result": "Not Active"}, {"measurement": "Ki", "setting": "[4]", "result": "Not Active"}, {"measurement": "IC50", "setting": "[5]; hek293", "result": "Not Active"}, {"measurement": "Ki", "setting": "[5]; hek293", "result": "Not Active"}]}
{"compound": "COLISTIN", "values": [{"measurement": "IC50", "setting": "[1]", "result": "Not Active"}, {"measurement": "Ki", "setting": "[1]", "result": "Not Active"}, {"measurement": "IC50", "setting": "[2]", "result": "Not Active"}, {"measurement": "Ki", "setting": "[2]", "result": "Not Active"}, {"measurement": "IC50", "setting": "B2 bradykinin receptor", "result": "Not Active"}, {"measurement": "Ki", "setting": "B2 bradykinin receptor", "result": "Not Active"}, {"measurement": "IC50", "setting": "[3]", "result": "Not Active"}, {"measurement": "Ki", "setting": "[3]", "result": "Not Active"}, {"measurement": "IC50", "setting": "[4]", "result": "Not Active"}, {"measurement": "Ki", "setting": "[4]", "result": "Not Active"}, {"measurement": "IC50", "setting": "[5]; hek293", "result": "Not Active"}, {"measurement": "Ki", "setting": "[5]; hek293", "result": "Not Active"}]}
